Experimental data as given in publication PMC4317055 (Journal of Medicinal Chemistry, 2014).

Legend:
human factor XIa [1] = target: T1, human factor XIa (Homo sapiens, UniProt P03951); type: biochemical; conditions: 50 mM Tris-HCl pH 7.4, 37 °C; for enhancement of fXIa catalysis in the screen: 300 μM compound; for reduction in residual fXIa activity (inhibition) in the screen: 300 μM inhibitor
human factor XIa [2] = target: T1, human factor XIa; assay: Dose-response inhibition of wild-type factor XIa, S-2366 hydrolysis assay; conditions: for HS (Hill slope) / Y0 (minimum value of the residual activity): logistic fit eq 1; for Y0 (minimum value of the residual activity): residual activity Y in %; for improvement in potency over the best sulfated QAO designed earlier: comparison with earlier studies
factor XIa = assay: Competitive inhibition studies using unfractionated heparin as a competitor; type: biochemical, human; conditions: UFH 0 to 16 μM; 50 mM Tris-HCl pH 7.4, 37 °C
human factor XIa [3] = target: T1, human factor XIa; assay: Michaelis-Menten kinetics of S-2366 hydrolysis in the presence of inhibitors; type: biochemical; conditions: for VMAX: S-2366 0-1.6 mM; for mechanism of inhibition: VMAX reduced dose-dependently without significant change in KM
[4] = system: fluorescein-EGR factor XIa (fEGR-fXIa); type: binding, human; conditions: bolus giving ∼33 μM in fXIa solution quenched with 0.175 M NaI

T1 sequence (P03951 19-387 limits assumed): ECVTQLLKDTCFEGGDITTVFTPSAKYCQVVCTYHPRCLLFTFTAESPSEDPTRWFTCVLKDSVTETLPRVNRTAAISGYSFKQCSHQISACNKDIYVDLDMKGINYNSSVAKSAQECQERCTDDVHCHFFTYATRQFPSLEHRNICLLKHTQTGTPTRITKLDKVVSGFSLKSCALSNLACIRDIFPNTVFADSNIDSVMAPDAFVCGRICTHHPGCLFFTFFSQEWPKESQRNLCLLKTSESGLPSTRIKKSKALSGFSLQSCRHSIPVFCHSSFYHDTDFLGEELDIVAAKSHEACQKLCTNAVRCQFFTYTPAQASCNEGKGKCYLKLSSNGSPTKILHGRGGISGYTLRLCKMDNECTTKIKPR
T1 sequence (P03951 388-625 limits assumed): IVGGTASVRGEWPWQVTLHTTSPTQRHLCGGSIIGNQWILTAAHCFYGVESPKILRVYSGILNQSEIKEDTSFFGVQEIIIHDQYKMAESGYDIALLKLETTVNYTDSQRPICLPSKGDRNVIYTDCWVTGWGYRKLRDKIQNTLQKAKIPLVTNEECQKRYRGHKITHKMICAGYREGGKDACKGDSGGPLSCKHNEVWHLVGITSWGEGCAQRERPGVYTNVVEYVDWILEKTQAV

Compound | HS (Hill slope) (human factor XIa [2]) | Y0 (minimum value of the residual activity) (human factor XIa [2]) | further results
O=C(c1cc(OS(=O)(=O)[O-])cc(OS(=O)(=O)[O-])c1)N1CCc2cc(OS(=O)(=O)[O-])c(OS(=O)(=O)[O-])cc2C1.[Na+].[Na+].[Na+].[Na+] [compound 33] | – | – | enhancement of fXIa catalysis in the screen (human factor XIa [1]): 20–30%
COC(=O)c1c(C)oc2cc(OC)c(OCc3oc4cc(OC)c(OS(=O)(=O)[O-])cc4c3C(=O)OC)cc12.[Na+] [compound 15] | 6.9 ± 1.2 | 4 ± 4 | –
CCOC(=O)c1c(C)oc2cc(OC)c(OCc3oc4cc(OC)c(OCc5oc6cc(OC)c(OS(=O)(=O)[O-])cc6c5C(=O)OC)cc4c3C(=O)OCC)cc12.[Na+] [compound 23] | 5.2 ± 0.4 | 7 ± 1 | –
O=C([O-])C1Cc2cc(OS(=O)(=O)[O-])c(OS(=O)(=O)[O-])cc2CN1C(=O)c1cc(OS(=O)(=O)[O-])c(OS(=O)(=O)[O-])c(OS(=O)(=O)[O-])c1.[Na+].[Na+].[Na+].[Na+].[Na+].[Na+] (stereo not shown) [compound 37] | – | – | enhancement of fXIa catalysis in the screen (human factor XIa [1]): 20–30%
C=CCOC(=O)c1c(C)oc2cc(OC)c(OCc3oc4cc(OC)c(OCc5oc6cc(OC)c(OS(=O)(=O)[O-])cc6c5C(=O)OCC)cc4c3C(=O)OCC)cc12.[Na+] [compound 28] | 6.4 ± 0.9 | 10 ± 2 | –
O=C(Nc1ccc(OS(=O)(=O)[O-])cc1)c1cccc(N2C(=O)c3ccc(C(=O)Nc4ccc(OS(=O)(=O)[O-])cc4)cc3C2=O)c1.[Na+].[Na+] [compound 63] | 6.0 ± 0.9 | 0 ± 1 | –
CCOC(=O)c1c(C)oc2cc(OC)c(OCc3oc4cc(OC)c(OCc5oc6cc(OCC)c(OS(=O)(=O)[O-])cc6c5C(=O)OCC)cc4c3C(=O)OCC)cc12.[Na+] [compound 24] | 3.8 ± 0.3 | 0 ± 1 | improvement in potency over the best sulfated QAO designed earlier (human factor XIa [2]): ~50 fold; change in IC50 in the presence of UFH (factor XIa): no significant change; VMAX (human factor XIa [3]; 24 at 150 nM, fXIa 0.765 nM): 57.1 ± 1.8 mAU/min; VMAX (human factor XIa [3]; 24 at 300 nM, fXIa 0.765 nM): 48.7 ± 1.7 mAU/min; VMAX (human factor XIa [3]; 24 at 550 nM, fXIa 0.765 nM): 34.9 ± 0.9 mAU/min; VMAX (human factor XIa [3]; 24 at 900 nM, fXIa 0.765 nM): 9.8 ± 0.5 mAU/min; mechanism of inhibition (human factor XIa [3]): noncompetitive inhibition; nature of the interaction with fXIa (recovery of fluorescence after bolus) [4]: fully reversible
CCOC(=O)C1Cc2cc(OS(=O)(=O)[O-])c(OS(=O)(=O)[O-])cc2CN1C(=O)c1ccc(OS(=O)(=O)[O-])c(OS(=O)(=O)[O-])c1.[Na+].[Na+].[Na+].[Na+] (stereo not shown) [compound 35] | – | – | enhancement of fXIa catalysis in the screen (human factor XIa [1]): 20–30%
CCOC(=O)c1c(C)oc2cc(OC)c(OCc3oc4cc(OC)c(OCc5oc6cc(OC)c(OCc7oc8cc(OC)c(OS(=O)(=O)[O-])cc8c7C(=O)OCC)cc6c5C(=O)OCC)cc4c3C(=O)OCC)cc12.[Na+] [compound 32] | 1.3 ± 0.2 | 0 ± 1 | –
O=C(c1cc(OS(=O)(=O)[O-])c(OS(=O)(=O)[O-])c(OS(=O)(=O)[O-])c1)N1CCc2cc(OS(=O)(=O)[O-])c(OS(=O)(=O)[O-])cc2C1.[Na+].[Na+].[Na+].[Na+].[Na+] [compound 36] | – | – | enhancement of fXIa catalysis in the screen (human factor XIa [1]): 20–30%
CCOC(=O)c1c(C)oc2cc(OCc3oc4cc(OC)c(OS(=O)(=O)[O-])cc4c3C(=O)OCC)c(OC)cc12.[Na+] [compound 22] | – | – | reduction in residual fXIa activity (inhibition) in the screen (human factor XIa [1]): did not inhibit fXIa
CCOC(=O)c1c(C)oc2cc(OC)c(OCc3oc4cc(OC)c(OCc5oc6cc(OS(=O)(=O)[O-])c(OC)cc6c5C(=O)OCC)cc4c3C(=O)OCC)cc12.[Na+] [compound 31] | – | – | reduction in residual fXIa activity (inhibition) in the screen (human factor XIa [1]): did not inhibit fXIa
CCOC(=O)c1c(COc2cc3c(C(=O)OCC)c(COc4cc5c(C(=O)O)c(C)oc5cc4OC)oc3cc2OC)oc2cc(OC)c(O)cc12 [compound 29] | 1.9 ± 0.4 | 0 ± 1 | loss in activity from sulfated analogue 30 (human factor XIa [2]; IC50 ratio 29 vs 30): ~13 fold

Second part, led by results:

HS (Hill slope) (human factor XIa [2]) | Y0 (minimum value of the residual activity) (human factor XIa [2]) | Compound | further results
6.9 ± 0.7 | 3 ± 2 | CCOC(=O)c1c(COc2cc3c(C(=O)O)c(C)oc3cc2OC)oc2cc(OC)c(OCc3oc4cc(OC)c(OS(=O)(=O)[O-])cc4c3C(=O)OCC)cc12.[Na+] [compound 30] | less potent than 3-carboxyethyl ester analogue 27 (human factor XIa [2]; IC50 ratio 30 vs 27): 4.7 fold
1.9 ± 0.3 | 0 ± 2 | CCOC(=O)c1c(C)oc2cc(OC)c(OCc3oc4cc(OCC)c(OS(=O)(=O)[O-])cc4c3C(=O)OCC)cc12.[Na+] [compound 21] | improvement in potency over the best sulfated QAO designed earlier (human factor XIa [2]): 10 fold; change in IC50 in the presence of UFH (factor XIa): no significant change; VMAX (human factor XIa [3]; 21 at 5 μM, fXIa 0.365 nM): 37.4 ± 1.4 mAU/min; VMAX (human factor XIa [3]; 21 at 7.25 μM, fXIa 0.365 nM): 30.7 ± 0.6 mAU/min; VMAX (human factor XIa [3]; 21 at 10 μM, fXIa 0.365 nM): 20.3 ± 1.2 mAU/min; mechanism of inhibition (human factor XIa [3]): noncompetitive inhibition
6.2 ± 0.5 | 0 ± 1 | N#Cc1c(SCC(=O)c2cccc(OS(=O)(=O)[O-])c2OS(=O)(=O)[O-])nc([N+](=O)[O-])c(C#N)c1-c1ccc(Oc2ccccc2)cc1.[Na+].[Na+] [compound 61] | –
6.6 ± 0.8 | 3 ± 2 | CCOC(=O)c1c(C)oc2cc(OC)c(OCc3oc4cc(OC)c(OCc5oc6cc(OC(C)C)c(OS(=O)(=O)[O-])cc6c5C(=O)OCC)cc4c3C(=O)OCC)cc12.[Na+] [compound 25] | –
11.7 ± 1.5 | 2 ± 1 | CCOC(=O)c1c(C)oc2cc(OC)c(OCc3oc4cc(OC)c(OCc5oc6cc(OC)c(OS(=O)(=O)[O-])cc6c5C(=O)OCC)cc4c3C(=O)OCC)cc12.[Na+] [compound 27] | –
